Reference: ChEMBL document CHEMBL2346572, “Discovery of AZD3514, a small-molecule androgen receptor downregulator for treatment of advanced prostate cancer” (Bioorg Med Chem Lett, 2013)
In brackets after ≈: the same amount, converted by molar mass. Activity calls are given as the source filed them. The rule behind the calls is not given here.

Assays:
[1] = Oral bioavailability in beagle dog at 10 umol/kg; format: ADME, organism-based, Canis lupus familiaris; details: in vivo
[2] = Clearance in beagle dog at 2 umol/kg, iv and 10 umol/kg, po; format: ADME, organism-based, Canis lupus familiaris; details: in vivo
physchem = details: phosphate buffer
[3] = biological target: Voltage-gated inwardly rectifying potassium channel KCNH2 (Homo sapiens, UniProt Q12809); test: Inhibition of human ERG by IonWorks assay
Voltage-gated inwardly rectifying potassium channel KCNH2, sequence (Q12809 whole entry): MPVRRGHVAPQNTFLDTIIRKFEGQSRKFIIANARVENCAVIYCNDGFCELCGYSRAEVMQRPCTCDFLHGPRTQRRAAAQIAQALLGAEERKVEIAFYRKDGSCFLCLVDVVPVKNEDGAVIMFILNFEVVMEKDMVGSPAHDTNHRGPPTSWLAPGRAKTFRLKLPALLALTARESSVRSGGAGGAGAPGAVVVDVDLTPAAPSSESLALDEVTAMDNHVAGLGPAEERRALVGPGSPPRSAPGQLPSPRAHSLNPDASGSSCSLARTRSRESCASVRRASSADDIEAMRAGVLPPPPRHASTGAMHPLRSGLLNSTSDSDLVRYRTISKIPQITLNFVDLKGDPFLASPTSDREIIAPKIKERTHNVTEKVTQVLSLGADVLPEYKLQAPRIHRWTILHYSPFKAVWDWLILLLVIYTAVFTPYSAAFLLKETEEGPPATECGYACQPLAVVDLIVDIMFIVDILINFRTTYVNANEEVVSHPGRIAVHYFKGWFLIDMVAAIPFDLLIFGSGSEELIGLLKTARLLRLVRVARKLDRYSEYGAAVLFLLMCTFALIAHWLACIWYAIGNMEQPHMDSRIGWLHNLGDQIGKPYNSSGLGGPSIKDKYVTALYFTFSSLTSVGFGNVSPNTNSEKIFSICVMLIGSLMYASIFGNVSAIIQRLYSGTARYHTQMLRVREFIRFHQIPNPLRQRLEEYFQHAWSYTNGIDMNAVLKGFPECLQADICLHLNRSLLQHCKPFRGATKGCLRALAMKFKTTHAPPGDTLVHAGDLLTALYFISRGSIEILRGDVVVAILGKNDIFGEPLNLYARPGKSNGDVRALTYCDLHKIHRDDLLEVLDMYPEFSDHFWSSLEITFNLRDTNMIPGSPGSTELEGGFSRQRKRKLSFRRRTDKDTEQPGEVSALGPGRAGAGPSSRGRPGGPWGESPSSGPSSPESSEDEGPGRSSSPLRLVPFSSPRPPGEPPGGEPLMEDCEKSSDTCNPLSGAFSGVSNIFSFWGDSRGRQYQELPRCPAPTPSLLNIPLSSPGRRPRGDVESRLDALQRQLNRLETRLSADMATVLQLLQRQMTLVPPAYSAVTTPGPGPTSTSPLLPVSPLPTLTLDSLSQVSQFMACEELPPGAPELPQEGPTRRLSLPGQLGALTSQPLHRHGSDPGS

[4] = Oral bioavailability in Han Wistar rat at 10 umol/kg; format: ADME, organism-based; details: in vivo
[5] = Intrinsic clearance in human hepatocytes measured per 10^6 cells
[6] = Lipophilicity, log D of the compound at pH 7.4; details: buffer
[7] = Volume of distribution at steady state in beagle dog at 2 umol/kg, iv and 10 umol/kg, po; format: ADME, organism-based, Canis lupus familiaris; details: in vivo, read-out: Vdss
Androgen receptor [8] = biological target: T1, Androgen receptor (Homo sapiens, UniProt P10275); test: Inhibition of androgen receptor-mediated cellular downregulation in human LNCAP cells assessed as decrease in nuclear receptor level after 20 to 22 hrs by laser-scanning fluorescence microplate cytometeric analysis; format: cell-based
T1 sequence (P10275 whole entry): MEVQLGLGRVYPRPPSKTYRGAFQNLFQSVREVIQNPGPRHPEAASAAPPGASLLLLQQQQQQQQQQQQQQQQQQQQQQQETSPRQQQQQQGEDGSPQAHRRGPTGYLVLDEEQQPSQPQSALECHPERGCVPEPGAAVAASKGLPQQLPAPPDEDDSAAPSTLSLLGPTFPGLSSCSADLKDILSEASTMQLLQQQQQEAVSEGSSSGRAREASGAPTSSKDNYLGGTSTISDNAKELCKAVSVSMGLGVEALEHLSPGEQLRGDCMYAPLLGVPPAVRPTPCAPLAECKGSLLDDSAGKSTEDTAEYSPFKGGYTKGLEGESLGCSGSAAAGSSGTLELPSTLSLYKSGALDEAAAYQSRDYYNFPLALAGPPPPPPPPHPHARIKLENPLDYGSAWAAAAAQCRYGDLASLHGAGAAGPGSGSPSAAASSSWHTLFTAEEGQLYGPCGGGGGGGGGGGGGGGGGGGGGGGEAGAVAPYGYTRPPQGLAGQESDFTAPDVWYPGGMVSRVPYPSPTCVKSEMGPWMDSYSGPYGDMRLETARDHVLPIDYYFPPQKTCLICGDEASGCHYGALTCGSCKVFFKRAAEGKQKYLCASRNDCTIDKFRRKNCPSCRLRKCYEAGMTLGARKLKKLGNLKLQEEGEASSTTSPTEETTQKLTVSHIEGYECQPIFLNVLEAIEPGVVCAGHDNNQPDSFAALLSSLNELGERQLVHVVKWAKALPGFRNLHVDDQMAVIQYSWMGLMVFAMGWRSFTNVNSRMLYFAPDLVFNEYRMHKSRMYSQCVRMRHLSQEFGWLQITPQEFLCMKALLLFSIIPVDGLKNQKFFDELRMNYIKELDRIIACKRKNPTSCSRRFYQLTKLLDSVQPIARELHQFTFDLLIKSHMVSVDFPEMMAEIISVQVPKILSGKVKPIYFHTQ

[9] = Fraction unbound in human plasma by equilibrium dialysis method; format: ADME, cell-free
[10] = Fraction unbound in Han Wistar rat plasma by equilibrium dialysis method; format: ADME, cell-free
Rattus norvegicus [11] = test: Antiandrogenic activity in immature castrated Hershberger rat model assessed as inhibition of testosterone propionate-induced seminal vesicle growth at 50 to 100 mg/kg, po bid for 7 days; format: functional, organism-based
[12] = Volume of distribution at steady state in Han Wistar rat at 3 umol/kg, iv and 10 umol/kg, po; format: ADME, organism-based; details: in vivo, read-out: Vdss
[13] = Clearance in Han Wistar rat at 3 umol/kg, iv and 10 umol/kg, po; format: ADME, organism-based; details: in vivo
[14] = Oral bioavailability in Han Wistar rat at 5 umol/kg; format: ADME, organism-based; details: in vivo
[15] = Clearance in Han Wistar rat at 4 umol/kg, iv and 5 umol/kg, po; format: ADME, organism-based; details: in vivo
[16] = Volume of distribution at steady state in Han Wistar rat at 4 umol/kg, iv and 5 umol/kg, po; format: ADME, organism-based; details: in vivo, read-out: Vdss
Androgen receptor [17] = biological target: T1, Androgen receptor; test: Displacement of [3H]R1881 from full length androgen receptor in human LNCAP cells; format: cell-based
Androgen receptor [18] = biological target: T2, Androgen receptor (Rattus norvegicus, UniProt P15207); test: Binding affinity to rat androgen receptor ligand binding domain by fluorescence polarization assay
T2 sequence (P15207 whole entry): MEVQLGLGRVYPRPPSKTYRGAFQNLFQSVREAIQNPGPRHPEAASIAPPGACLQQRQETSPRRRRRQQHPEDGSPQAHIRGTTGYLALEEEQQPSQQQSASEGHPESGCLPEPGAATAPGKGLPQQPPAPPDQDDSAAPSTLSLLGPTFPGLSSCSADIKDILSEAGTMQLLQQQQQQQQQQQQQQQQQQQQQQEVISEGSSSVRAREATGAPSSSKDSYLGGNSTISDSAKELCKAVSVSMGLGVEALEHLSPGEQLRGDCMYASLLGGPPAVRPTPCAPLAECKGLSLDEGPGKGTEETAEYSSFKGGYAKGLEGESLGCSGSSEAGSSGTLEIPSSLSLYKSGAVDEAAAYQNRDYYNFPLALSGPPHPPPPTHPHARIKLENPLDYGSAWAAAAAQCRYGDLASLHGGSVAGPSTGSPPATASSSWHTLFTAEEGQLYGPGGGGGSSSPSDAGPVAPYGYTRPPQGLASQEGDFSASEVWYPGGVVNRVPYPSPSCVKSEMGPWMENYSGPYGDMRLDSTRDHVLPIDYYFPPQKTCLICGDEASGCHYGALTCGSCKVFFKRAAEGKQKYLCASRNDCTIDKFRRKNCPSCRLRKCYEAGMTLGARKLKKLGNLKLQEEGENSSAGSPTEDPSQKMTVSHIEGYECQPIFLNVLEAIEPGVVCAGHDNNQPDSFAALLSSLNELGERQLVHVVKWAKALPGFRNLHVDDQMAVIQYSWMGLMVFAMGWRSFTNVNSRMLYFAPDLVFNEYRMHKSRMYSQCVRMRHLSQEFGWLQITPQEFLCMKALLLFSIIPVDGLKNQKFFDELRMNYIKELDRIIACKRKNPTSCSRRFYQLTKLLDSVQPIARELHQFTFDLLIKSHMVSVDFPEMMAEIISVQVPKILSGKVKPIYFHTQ

[19] = Oral bioavailability in Han Wistar rat at 50 umol/kg; format: ADME, organism-based; details: in vivo
[20] = Clearance in Han Wistar rat at 20 umol/kg, iv and 50 umol/kg, po; format: ADME, organism-based; details: in vivo
[21] = Volume of distribution at steady state in Han Wistar rat at 20 umol/kg, iv and 50 umol/kg, po; format: ADME, organism-based; details: in vivo, read-out: Vdss
Rattus norvegicus [22] = test: Antiandrogenic activity in immature castrated Hershberger rat model assessed as inhibition of testosterone propionate-induced seminal vesicle growth at 2 mg/kg, po bid for 7 days; format: functional, organism-based; parameters: dose 2 mg/kg

SMILES	solubility thermodynamic at 24 h (physchem) [µM]	IC50 [3] [µM]	hepatocyte CLint [5] [µL/min/1e6 cells]	logD [6]	IC50 (Androgen receptor [8]) [µM]	fraction unbound [9]	fraction unbound [10]	other results
Cn1nccc1CCOc1ccc(C2CCN(c3ccc4nnc(C(F)(F)F)n4n3)CC2)cc1	< 0.73	17.8	12	> 4.3	0.234	0.0016	0.0021	bioavailability [1]: 18%; clearance [2]: 9.2 mL/min/kg; bioavailability [4]: 43%; Vd [7]: 2.7 L/kg; growth inhibition (GI) (Rattus norvegicus [11]): Active; Vd [12]: 2.3 L/kg; clearance [13]: 22 mL/min/kg
CC(=O)N1CCN(CCOc2ccc(C3CCN(C4=Nn5c(nnc5C(F)(F)F)CC4)CC3)cc2)CC1 [AZD3514]	577 (≈ 300 µg/mL)	> 100	< 3	2.5	1.78	0.12	0.094	bioavailability [1]: > 75%; clearance [2]: 12 mL/min/kg; bioavailability [14]: 74%; clearance [15]: 6.6 mL/min/kg; Vd [16]: 2.1 L/kg; Vd [7]: 3.2 L/kg; Ki (Androgen receptor [17]): 2.2 µM; growth inhibition (GI) (Rattus norvegicus [11]): Active; Ki (Androgen receptor [18]): 5 µM
Fc1ccc(CN2CCN(C3=Nn4c(nnc4C(F)(F)F)CC3)CC2)cc1	520 (≈ 199 µg/mL)	29.5	3.7	2.8	5.89	0.12	0.13	
N#Cc1ccc(CN2CCN(c3ccc4nnc(C(F)(F)F)n4n3)CC2)cc1	8.4 (≈ 3.25 µg/mL)		< 3	2.9	1.51	0.044	0.092	
Fc1ccc(CN2CCN(c3ccc4nnc(C(F)(F)F)n4n3)CC2)cc1			52			0.02	0.034	
Fc1cccc(CN2CCN(c3ccc4nnc(C(F)(F)F)n4n3)CC2)c1F		> 100	22		2.09	0.017	0.018	
CC(=O)N1CCN(CCOc2ccc(C3(O)CCN(c4ccc5nnc(C(F)(F)F)n5n4)CC3)cc2)CC1	190 (≈ 101 µg/mL)	> 100		2.2		0.17	0.064	
CC(=O)N1CCN(CCOc2ccc(C3CCN(c4ccc5nnc(C(F)(F)F)n5n4)CC3)cc2)CC1		11.2	12		0.324	0.027	0.012	
OC1(c2cccnc2)CCN(c2ccc3nnc(C(F)(F)F)n3n2)CC1	100 (≈ 36.4 µg/mL)	95.5	< 3	2.1	10.7	0.26	0.34	bioavailability [19]: > 75%; bioavailability [1]: > 75%; clearance [20]: 38 mL/min/kg; clearance [2]: 18 mL/min/kg; Vd [7]: 1.3 L/kg; growth inhibition (GI) (Rattus norvegicus [11]): Active; Vd [21]: 5.7 L/kg
OC1(c2ccc(F)cc2)CCN(c2ccc3nnc(C(F)(F)F)n3n2)CC1			< 3			0.04	0.036	
CC(O)(CS(=O)(=O)c1ccc(F)cc1)C(=O)Nc1ccc(C#N)c(C(F)(F)F)c1 (centres undefined)								growth inhibition (GI) (Rattus norvegicus [22]): Active
